Numbers after ± are expanded uncertainties.
Settings: 101.33 kPa, Crystal, relaxation calorimeter

O[C@H]1[C@H](O)[C@H](O)OC[C@H]1O [β-D-arabinopyranose]
Settings | molar entropy [J/K/mol]
0.5 K | 0.0007089 ± 8.4e-05
1 K | 0.001551 ± 0.00017
1.5 K | 0.002666 ± 0.00028
2 K | 0.004203 ± 0.00045
2.5 K | 0.006327 ± 0.00067
3 K | 0.009226 ± 0.00097
3.5 K | 0.01311 ± 0.0014
4 K | 0.01824 ± 0.0019
4.5 K | 0.02488 ± 0.0026
5 K | 0.03336 ± 0.0035
5.5 K | 0.04406 ± 0.0046
6 K | 0.0574 ± 0.006
6.5 K | 0.07383 ± 0.0077
7 K | 0.09385 ± 0.0098
7.5 K | 0.118 ± 0.012
8 K | 0.1468 ± 0.015
8.5 K | 0.1809 ± 0.019
9 K | 0.2206 ± 0.023
9.5 K | 0.2662 ± 0.028
10 K | 0.3182 ± 0.033
11 K | 0.4423 ± 0.046
12 K | 0.5944 ± 0.062
13 K | 0.7758 ± 0.081
14 K | 0.9866 ± 0.1
15 K | 1.227 ± 0.13
16 K | 1.496 ± 0.16
17 K | 1.793 ± 0.19
18 K | 2.116 ± 0.22
19 K | 2.466 ± 0.26
20 K | 2.839 ± 0.3
25 K | 5.013 ± 0.31
30 K | 7.582 ± 0.46
35 K | 10.43 ± 0.64
40 K | 13.47 ± 0.82
45 K | 16.66 ± 1
50 K | 19.95 ± 1.2
55 K | 23.28 ± 1.4
60 K | 26.64 ± 1.6
65 K | 30 ± 1.8
70 K | 33.38 ± 2
75 K | 36.77 ± 2.2
80 K | 40.16 ± 2.4
85 K | 43.54 ± 2.7
90 K | 46.93 ± 2.9
95 K | 50.31 ± 3.1
100 K | 53.68 ± 3.3
110 K | 60.41 ± 3.7
120 K | 67.11 ± 4.1
130 K | 73.78 ± 4.5
140 K | 80.41 ± 4.9
150 K | 87.01 ± 5.3
160 K | 93.58 ± 5.7
170 K | 100.12 ± 6.1
180 K | 106.62 ± 6.5
190 K | 113.1 ± 6.9
200 K | 119.55 ± 7.3
210 K | 125.98 ± 7.7
220 K | 132.38 ± 8.1
230 K | 138.76 ± 8.4
240 K | 145.12 ± 8.8
250 K | 151.45 ± 9.2
260 K | 157.77 ± 9.6
270 K | 164.07 ± 10
273.15 K | 166.06 ± 10
280 K | 170.36 ± 10
290 K | 176.63 ± 11
298.15 K | 181.72 ± 11
300 K | 182.88 ± 11

Source: the NIST ThermoML archive (doi:10.1016/j.jct.2015.08.031)
